Results published in ChEMBL document CHEMBL5608209, “Biological and structural investigation of tetrahydro-β-carboline-based selective HDAC6 inhibitors with improved stability” (Eur J Med Chem, 2024).
Calls of active or inactive are those of the source. The rule behind the calls is not given here.

Columns and labels:
Histone deacetylase 3 = Histone deacetylase 3 (Homo sapiens, UniProt O15379)
Description: Inhibition of purified recombinant human HDAC3 assessed as inhibition constant using fluorogenic substrate ZMAL (Z-Lys(Ac)-AMC as substrate measured after 90 mins by fluorescence microplate reader

[1] = biological target: T1, Protein deacetylase HDAC6 (Homo sapiens, UniProt Q9UBN7); assay: Inhibition of purified recombinant human HDAC6 assessed as inhibition constant using residues 379-382 (RHKK(Ac)AMC) fluorogenic substrate p53 fluorogenic peptide as substrate measured after 90 mins by fluorescence assay
T1 sequence (Q9UBN7 whole entry): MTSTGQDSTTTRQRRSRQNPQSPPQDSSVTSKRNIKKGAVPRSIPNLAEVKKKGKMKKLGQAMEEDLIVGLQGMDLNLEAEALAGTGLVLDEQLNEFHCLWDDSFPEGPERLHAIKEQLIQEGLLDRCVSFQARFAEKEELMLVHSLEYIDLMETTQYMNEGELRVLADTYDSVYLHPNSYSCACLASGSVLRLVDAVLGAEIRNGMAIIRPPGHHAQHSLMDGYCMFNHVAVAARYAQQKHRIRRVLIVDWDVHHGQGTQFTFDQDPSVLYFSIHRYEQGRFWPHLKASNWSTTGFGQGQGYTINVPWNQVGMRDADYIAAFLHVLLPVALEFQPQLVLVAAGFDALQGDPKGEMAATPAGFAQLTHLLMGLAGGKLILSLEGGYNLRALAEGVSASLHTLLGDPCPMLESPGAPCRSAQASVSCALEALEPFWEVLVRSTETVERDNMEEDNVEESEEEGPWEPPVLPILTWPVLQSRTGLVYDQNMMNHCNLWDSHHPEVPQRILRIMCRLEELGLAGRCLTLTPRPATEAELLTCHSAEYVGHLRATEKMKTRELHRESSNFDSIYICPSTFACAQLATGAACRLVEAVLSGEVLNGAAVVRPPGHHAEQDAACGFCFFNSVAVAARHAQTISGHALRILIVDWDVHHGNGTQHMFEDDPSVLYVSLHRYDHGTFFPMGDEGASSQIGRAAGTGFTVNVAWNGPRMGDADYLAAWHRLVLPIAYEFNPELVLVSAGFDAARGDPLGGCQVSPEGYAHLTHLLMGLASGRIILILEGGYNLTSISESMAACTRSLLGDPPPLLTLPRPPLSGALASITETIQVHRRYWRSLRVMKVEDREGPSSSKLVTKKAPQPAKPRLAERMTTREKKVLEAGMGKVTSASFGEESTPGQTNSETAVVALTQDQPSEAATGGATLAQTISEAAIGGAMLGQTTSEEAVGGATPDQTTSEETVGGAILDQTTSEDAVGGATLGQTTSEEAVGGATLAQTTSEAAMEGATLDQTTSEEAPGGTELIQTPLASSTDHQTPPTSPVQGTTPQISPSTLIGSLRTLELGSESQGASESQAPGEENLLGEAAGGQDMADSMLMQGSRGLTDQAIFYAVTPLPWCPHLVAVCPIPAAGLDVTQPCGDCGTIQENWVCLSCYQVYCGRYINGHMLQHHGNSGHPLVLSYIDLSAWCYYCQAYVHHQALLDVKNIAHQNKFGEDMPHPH

Histone deacetylase 8 = biological target: T2, Histone deacetylase 8 (Homo sapiens, UniProt Q9BY41); assay: Inhibition of purified recombinant human HDAC8 assessed as inhibition constant using residues 379-382 (RHKK(Ac)AMC) fluorogenic substrate p53 fluorogenic peptide as substrate measured after 90 mins by fluorescence assay
T2 sequence (Q9BY41 whole entry): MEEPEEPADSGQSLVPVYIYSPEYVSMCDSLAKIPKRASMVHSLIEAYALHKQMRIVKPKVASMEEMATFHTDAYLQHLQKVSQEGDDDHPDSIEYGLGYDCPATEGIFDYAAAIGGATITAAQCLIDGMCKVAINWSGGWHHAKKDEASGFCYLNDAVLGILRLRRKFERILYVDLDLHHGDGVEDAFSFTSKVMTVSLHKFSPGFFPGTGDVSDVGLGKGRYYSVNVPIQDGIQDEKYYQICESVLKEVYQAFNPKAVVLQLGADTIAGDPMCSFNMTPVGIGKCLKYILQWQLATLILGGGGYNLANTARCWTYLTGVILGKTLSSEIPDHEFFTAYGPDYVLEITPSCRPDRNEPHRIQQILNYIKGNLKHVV

in vitro [2] = details: human, plasma diluted in PBS (1:2 v/v)
Description: Stability in human plasma in PBS (1:2 v/v) assessed as intact compound at 37 degC measured after 24 hrs

in vitro [3] = details: human, plasma diluted in PBS (1:2 v/v); remark: listed apart in the source
Description: Stability in human plasma in PBS (1:2 v/v) assessed as intact compound at 37 degC measured after 72 hrs

MV4-11 = assay: Antiproliferative activity against human MV4-11 cells assessed as cell viability by measuring amount of ATP after 72 hrs incubation by CellTiteer-Glo Cell viability assay; details: MV4-11, 72 h
[4] = biological target: T3, Protein deacetylase HDAC6 (Homo sapiens) (UniProt Q9UBN7); details: MV4-11, dose 5.0 nM, time 24.0 hrs
T3 sequence (whole entry): T1 sequence (Q9UBN7 whole entry)

[5] = biological target: T3, Protein deacetylase HDAC6 (Homo sapiens); details: MV4-11, dose 50.0 nM, time 24.0 hrs
[6] = biological target: T3, Protein deacetylase HDAC6 (Homo sapiens); details: MV4-11, dose 500.0 nM, time 24.0 hrs
[7] = biological target: T4, Polyamine deacetylase HDAC10 (Homo sapiens, UniProt Q969S8); assay: Inhibition of purified recombinant human HDAC10 assessed as inhibition constant using residues 379-382 (RHKK(Ac)AMC) fluorogenic substrate p53 fluorogenic peptide as substrate measured after 90 mins by fluorescence assay
T4 sequence (Q969S8 whole entry): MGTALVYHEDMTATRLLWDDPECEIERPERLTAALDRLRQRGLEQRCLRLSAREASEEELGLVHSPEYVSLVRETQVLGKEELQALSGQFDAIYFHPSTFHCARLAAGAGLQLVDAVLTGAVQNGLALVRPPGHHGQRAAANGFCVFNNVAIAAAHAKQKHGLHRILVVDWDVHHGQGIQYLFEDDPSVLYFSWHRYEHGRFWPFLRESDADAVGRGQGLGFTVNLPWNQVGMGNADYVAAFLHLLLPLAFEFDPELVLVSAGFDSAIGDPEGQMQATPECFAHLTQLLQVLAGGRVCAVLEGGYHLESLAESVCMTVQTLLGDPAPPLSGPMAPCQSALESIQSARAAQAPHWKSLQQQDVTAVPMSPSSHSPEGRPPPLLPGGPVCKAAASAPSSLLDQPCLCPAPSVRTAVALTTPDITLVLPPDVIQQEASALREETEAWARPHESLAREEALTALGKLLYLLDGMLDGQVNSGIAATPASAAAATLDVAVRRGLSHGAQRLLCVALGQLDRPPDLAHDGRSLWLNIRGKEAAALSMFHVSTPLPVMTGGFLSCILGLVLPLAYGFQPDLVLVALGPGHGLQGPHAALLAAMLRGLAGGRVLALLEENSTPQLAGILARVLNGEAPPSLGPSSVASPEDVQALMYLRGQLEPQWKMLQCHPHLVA

Histone deacetylase 3, sequence (O15379 whole entry, the tested form may be a part): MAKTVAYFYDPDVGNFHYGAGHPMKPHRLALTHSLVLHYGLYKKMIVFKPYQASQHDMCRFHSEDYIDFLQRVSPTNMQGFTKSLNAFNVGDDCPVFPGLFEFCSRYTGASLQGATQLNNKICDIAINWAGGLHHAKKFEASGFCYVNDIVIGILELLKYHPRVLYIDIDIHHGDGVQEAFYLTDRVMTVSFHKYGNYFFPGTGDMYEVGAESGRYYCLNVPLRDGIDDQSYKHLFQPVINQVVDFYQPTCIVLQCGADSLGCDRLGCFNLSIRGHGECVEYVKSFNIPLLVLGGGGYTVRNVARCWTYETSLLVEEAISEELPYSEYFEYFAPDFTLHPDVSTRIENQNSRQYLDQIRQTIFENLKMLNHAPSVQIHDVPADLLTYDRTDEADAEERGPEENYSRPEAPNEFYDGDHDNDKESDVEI

`CN1C(=O)N2Cc3c(c4cc(OCCN5CCOCC5)ccc4n3Cc3ccc(C(=O)NO)cc3)C(C3CCCCC3)(C2)C1=O` (racemic) showed a Ki (Histone deacetylase 3) of 675 nM, a Ki [1] of 1.25 nM and a Ki (Histone deacetylase 8) of 1090 nM.

With `CN1C(=O)N2Cc3c(c4cc(OCCN5CCOCC5)ccc4n3Cc3ccc(C(=O)O)cc3)[C@](C)(C2)C1=O` the remaining at 24 h (in vitro [2]) was 91.4% and the remaining at 72 h (in vitro [3]) was 56.3%.

For `CC(/C=C/C(=O)NO)=C\[C@@H](C)C(=O)c1ccc(N(C)C)cc1` [TRICHOSTATIN], the EC50 (MV4-11) was 15.3 µM.

`CN1C(=O)N2Cc3c(c4cc(O)ccc4n3Cc3ccc(C(=O)NO)cc3)C(c3cccs3)(C2)C1=O` (racemic) showed a Ki (Histone deacetylase 3) of 118 nM and a Ki [1] of 0.31 nM.

For `CN1C(=O)C2CN(Cc3c2c2ccccc2n3Cc2ccc(C(=O)NO)cc2)C1=O` (stereo not given), the inhibition [4] was “inactive”, the inhibition [5] was “inactive” and the inhibition [6] was “inactive”.

`Cn1cc(CNCC2CCN(c3ncc(C(=O)NO)cn3)CC2)c2ccccc21` [QUISINOSTAT] showed a Ki [7] of 1.49 nM.

In the case of `CN1C(=O)N2Cc3c(c4cc(OCCN5CCOCC5)ccc4n3Cc3ccc(C(=O)NO)cc3)C(c3ccco3)(C2)C1=O` (racemic), the Ki (Histone deacetylase 3) is reported as 384 nM and the Ki [1] is reported as 0.44 nM.

`O=C(CCCCCCNC(=O)c1cnc(N(c2ccccc2)c2ccccc2)nc1)NO` [RICOLINOSTAT] showed an EC50 (MV4-11) of 0.71 µM.
